We go through six molecules from patent publication US8715668B2, “Antibody selective for a tumor necrosis factor-related apoptosis-inducing ligand receptor DR5 and uses thereof” (The UAB Research Foundation, priority 2000, dated 2014).

For one data set, the system named is CLL B cells. The data set is described as follows: Cytotoxicity to CLL B cells in vitro. Format: cell-based, human. Conditions: compared to normal primary B cells.
The subject of the next data set is breast cancer lines. The experiment in a line: Combined cytotoxicity of TRA-8 with adriamycin. In kind it is cell-based, human.
For another data set, the system named is MMP-1, 3, and 13. The data set is described as follows: ELISA of MMP production by RA synovial cells. To be noted: overnight; 50 ng/ml interleukin 1b, 10 ng/ml TNF-α, 50 ng/ml TRAIL, 50 ng/ml TRA-8. Format: cell-based, human. The method, then: Thus, it is possible that TRAIL, like TNF-α, may serve as a pro-inflammatory cytokine. […] The levels of the MMP-1 and MMP-3 in the culture supernatants are determined by the ELISA kits.

The test system of another data set is OA synovial cells. The experiment in a line: Cell viability of primary cultured OA synovial cells. Format: cell-based, human. To be noted: OA72M. The text has this: (§1) Cell viability is the percentage of the cpm of treated cells versus the cpm of untreated cells.
(§2) The expression of DR5 on a panel of eight primary cultured synovial cells from patients with RA is compared with that on eight primary cultured synovial cells from patients with osteoarthritis (hereinafter referred to as “OA”). The eight human primary RA synovial cell cultures RA-1014, RA-1016, RA-1021, RA-512, RA-707, RA-811, RA-716, and RA-929 are kindly provided by Dr. M. Ohtsuki (Sankyo Co. Ltd., Tokyo, Japan) and cultured in DMEM supplemented with 10% FCS, penicillin, streptomycin, and glutamine. The […] OA synovial cell primary cell cultures are isolated from the synovial tissues of OA patients by a standard collagenase method and cultured under the same conditions. The passage number of all primary cells is under 10. The expression of DR5 is determined by FACs analysis as described in Example 5.

Another data set has as its system normal human hepatocytes. The experiment in a line: Viability of normal human hepatocytes (ATPLite). In kind it is cell-based. The text has this:
For 24-hour cell viability assays, fresh normal human hepatocytes in 96-well plates were purchased from In Vitro Technology (Baltimore, Md.). […] For 6-hour viability assays, normal hepatocytes or hepatocellular cancer cells are isolated from fresh surgical specimens collected from UAB Tissue Procurement Center. All reagents for isolation of human hepatocytes including hepatocytes perfusion buffer, digest medium, washing medium, and attachment medium were purchased from Gibco. The tissue slides are digested in the Hepatocyte Digest Medium at 37° C. with shaking (50 rpm) for one hour. The isolated hepatocytes are harvested by low speed centrifugation (50 g, 3 min), and washed with the Hepatocyte Washing Medium six times. Single cell suspension of hepatocytes are cultured in the Attachment Medium containing 10% FCS in 96-well Matrigel plates (BD) for six hours. Non-attached hepatocytes are removed by twice washing with pre-warmed attachment medium.

The subject of the next data set is H-9. The experiment in a line: Apoptosis by ATPLite after overnight incubation. Format: cell-based, human. The method, then: (§3) Cell viability is determined using (1) the ATPLite® kit according to the manufacturer's instructions (Packard Instruments, Meriden, Conn.); (2) the MTT Cell proliferation/viability kit (Sigma); or (3) PI staining of dead cells and analyzed by flow cytometry. At end of culture, cells are stained with 10 μg/ml PI and PI negative cells are gated as viable cells. For analysis of condensed nuclei of hepatocytes, cells are stained with 10 ng/ml Hoechst 33352 (Molecular Probes) and analyzed by flow cytometry.

The subject of a further data set is Daudi. The experiment in a line: Apoptosis by ATPLite after overnight incubation. In kind it is cell-based, human. On the procedure: as §3
The next data set deals with Raji. The experiment in a line: Apoptosis by ATPLite after overnight incubation. Format: cell-based, human. The method, then: as §3
Another data set has as its system Molt-4. The data set is described as follows: Apoptosis by ATPLite after overnight incubation. Format: cell-based, human. The method, then:
as §3

Another data set has as its system SKW6.4. The data set is described as follows: Apoptosis by ATPLite after overnight incubation. In kind it is cell-based, human. On the procedure: as §3
For another data set, the system named is U251-MG. The experiment in a line: Apoptosis by ATPLite after overnight incubation. Format: cell-based, human. The method, then: as §3
A further data set has as its system U937. The data set is described as follows: Apoptosis by ATPLite after overnight incubation. Format: cell-based, human. On the procedure: as §3
Another data set relates to primary B cells. The experiment in a line: Apoptosis by ATPLite after overnight incubation. Format: cell-based, human. The method, then:
as §3

In a further data set the test system is Hs683. The data set is described as follows: Apoptosis by ATPLite after overnight incubation. Format: cell-based, human. On the procedure: as §3
The test system of the next data set is U87. The experiment in a line: Apoptosis by ATPLite after overnight incubation. Format: cell-based, human. The method, then:
as §3

The next data set concerns CEM-6. The data set is described as follows: Apoptosis by ATPLite after overnight incubation. In kind it is cell-based, human. The method, then:
as §3

In a further data set the test system is EB-3. The experiment in a line: Apoptosis by ATPLite after overnight incubation. In kind it is cell-based, human. On the procedure: as §3
Another data set has as its target T1, DR4 (Homo sapiens, UniProt O00220).
T1 construct: The soluble recombinant human DR4, DcR1, DcR2, TNFR1, R4, and Fas molecules used are human IgG1 fusion proteins; human IgG1 Fc
The experiment in a line: ELISA binding to immobilized DR4-Ig fusion protein. The method, then:
ELISA plates are coated with 2 μg/ml of DR4-Ig or DR5-Ig fusion protein overnight. […] The reactions are developed by TMB substrate buffer and measured by the Benchmark Microplate Reader (BioRad). The Kd values are estimated by the one-site binding model of non-linear regression using GraphPad Prism® software (GraphPad Software, San Diego, Calif.).

A further data set relates to liver. The data set is described as follows: Induction of hepatitis in vivo by tetracycline-inducible adenoviral vectors. The arrangement: species or system B6 mice. Conditions: Ad/TRAIL inoculated mice; 10 μg soluble human TRAIL. The method, then: 8-10 week-old female B6 mice are intravenously injected with 10^9 pfu of Ad/hTRAIL with the equal number of Ad/Tet-on. Mice are fed with different concentrations of tetracycline in their drinking water immediately after inoculation of adenoviral vectors. Liver injury is determined by serum levels of AST using an AST diagnostic kit (Sigma). Expression of TRAIL is determined by Northern blot analysis.

Data set [1] relates to Jurkat cells. The experiment in a line: Jurkat cell viability (ATPLite, MTT, PI exclusion). To be noted: overnight, TRAIL plus crosslinker. In kind it is cell-based, human. On the procedure:
as §3

In the next data set the test system is RA synovial cells. The data set is described as follows: Cell viability of primary cultured RA synovial cells. Format: cell-based, human. To be noted: high concentrations (>50 ng/ml).
Excerpt: as §1, §2

Data set [2] has as its system Jurkat cells. The experiment in a line: Apoptosis-inducing activity of humanized antibody on Jurkat cells (XTT). In kind it is cell-based, human. Conditions: 12 hours; serial 2-fold dilution from 100 ng/ml. On the procedure: Jurkat cells cultured in RPMI1640 medium with 10% FCS (Gibco BRL) at 37° C. for 3 days in the presence of 5% CO2 are dispensed into each well of a 96-well microplate (Sumitomo Bakelite) at 50 μl per well. […] Each of the solutions of the expression products thus adjusted to 100 ng/ml is used to produce serial dilutions by repeating serial 2-fold dilution with RPMI1640 containing 10% FCS. […] After reacting at 37° C. for 12 hours, 50 μl of 25 μM PMS (phenazine methosulfate; Sigma Chemical Co.) containing 1 mg/ml XTT (2,3-bis [2-methoxy-4-nitro-5-sulfophenyl]-2H-tetrazolium-5-carboxyaniride inner salt; Sigma Chemical Co.) is added (final concentrations of 250 μg/ml for XTT and 5 μM for PMS). After incubating for 3 hours, the absorbance at 450 nm of each well is measured to calculate the cell viability by using the reduction ability of mitochondria as the index.
The viability of the cells in each well is calculated according to the following formula: Viability(%)=100×(a−b)/(c−b) wherein “a” is the measurement of a test well, “b” is the measurement of a well with no cells, and “c” is the measurement of a well with no antibody added.
Jurkat cells cultured in RPMI1640 medium with 10% FCS (Gibco BRL) at 37° C. for 3 days in the presence of 5% CO2 are dispensed into each well of a 96-well microplate (Sumitomo Bakelite) at 50 μl per well. […]

T1 sequence (O00220 24-239 limits assumed): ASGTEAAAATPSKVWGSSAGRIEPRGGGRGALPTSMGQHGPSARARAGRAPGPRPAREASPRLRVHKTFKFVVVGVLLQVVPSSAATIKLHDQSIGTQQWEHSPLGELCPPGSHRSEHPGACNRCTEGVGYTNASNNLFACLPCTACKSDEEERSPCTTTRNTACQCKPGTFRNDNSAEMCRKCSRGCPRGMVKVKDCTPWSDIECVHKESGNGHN

As to `Cn1cc(C2=C(c3cn(CCCN)c4ccccc34)C(=O)NC2=O)c2ccccc21` [BisVIII, Bisindolylmaleimide VIII], the “susceptibility of CLL B cells” value with CLL B cells was “sensitive”.

On to `COc1cccc2c1C(=O)c1c(O)c3c(c(O)c1C2=O)C[C@@](O)(C(=O)CO)C[C@@H]3O[C@H]1C[C@H](N)[C@H](O)[C@H](C)O1` [adriamycin], for which the “effect on TRA-8-induced apoptosis” value in the data set on breast cancer lines (high doses of adriamycin) is reported as “additive effect”; in the data set on breast cancer lines (low doses of adriamycin, some TRA-8 resistant lines), “synergistically enhance”.

With IL-1b: proinflammatory cytokine, the “production/release of MMPs” value in the data set with MMP-1, 3, and 13 is reported as “increased”.

With TNF-α, in the data set on MMP-1, 3, and 13, the “production/release of MMPs” value is “increased”.

Regarding “TRAIL: Soluble recombinant human TRAIL (aa residues 95 to 281) fused to a FLAG-tag, Alexis; used with anti-FLAG crosslinker”, the susceptibility to apoptosis entry with OA synovial cells is “completely resistant”; in the data set on H-9, “resistant”; in the data set on Daudi, “much less susceptible”; in the data set on Raji, “very susceptible”; in the data set with Molt-4, “partially susceptible”; in the data set with SKW6.4, “very susceptible”. In addition, the susceptibility to apoptosis entry in the data set with U251-MG was “resistant”; with U937, “partially susceptible”; with primary B cells it was “did not undergo apoptosis”; in the data set on Hs683 it was “resistant”; in the data set on U87, “exhibited sensitivity”; in the data set on CEM-6 it was “highly susceptible”. Besides, the susceptibility to apoptosis entry with EB-3 was “very susceptible”; with Jurkat cells [1], “highly susceptible”. The hepatocytes killed result in the data set on normal human hepatocytes (6-hour culture period, 500 ng/ml TRAIL) is listed as “Over 20%”; in the data set with normal human hepatocytes (end of 24-hour culture, 1 μg/ml, TRAIL plus crosslinker) it was “more than 80%”. In addition, the “binding activity to DR4” value with DR4 is on record as “bound to DR4”. In addition, the “production/release of MMPs” value in the data set on MMP-1, 3, and 13 is listed as “not associated with increased release”. Moreover, the “liver injury after intravenous injection” value in the data set with liver is on record as “did not exhibit increased liver injury”. Further, the cell death in the data set with RA synovial cells (RA929), with RA synovial cells (RA-716), in the data set on RA synovial cells (RA-811) and in the data set on RA synovial cells (RA-1014) was approximately 100% each time.

B1: humanized TRA-8: humanized TRA-8, cotransfection of pHB14-1 and pSR/M2-1: H2 type heavy chain (SEQ ID No. 31), LM2 light chain (SEQ ID No. 46) (antibody)
VH: EVMLVESGGGLVQPGGSLRLSCAASGFTFSSYVMSWVRQAPGKGLEWVATISSGGSYTYYPDSVKGRFTISRDNAKNTLYLQMNSLRAEDTAVYYCARRGDSMITTDYWGQGTLVTVSS
light: DIVMTQSPSSLSASVGDRVTITCKASQDVGTAVAWYQQKPGKAPKLLIYWASTRHTGVPSRFSGSGSGTDFTLTISSLQPEDFATYYCQQYSSYRTFGQGTKVEIKRTVAAPSVFIFPPSDEQLKSGTASVVCLLNNFYPREAKVQWKVDNALQSGNSQESVTEQDSKDSTYSLSSTLTLSKADYEKHKVYACEVTHQGLSSPVTKSFNRGEC
Turning to B1, the induction of apoptosis result with Jurkat cells [2] was “induce apoptosis”.
